The values below come from patent publication US12685726B2, “Sulfoximines as inhibitors of NaV1.8” (Gruenenthal GmbH, priority 2022, dated 2026).

Bounds are passed on as bounds.

The target in the assay is T1, human NaV 1.8 (Homo sapiens, UniProt Q9Y5Y9).
T1 construct: expressed in transfected cells; host or cells: HEK (recombinant cell line)
T1 sequence (Q9Y5Y9 whole entry): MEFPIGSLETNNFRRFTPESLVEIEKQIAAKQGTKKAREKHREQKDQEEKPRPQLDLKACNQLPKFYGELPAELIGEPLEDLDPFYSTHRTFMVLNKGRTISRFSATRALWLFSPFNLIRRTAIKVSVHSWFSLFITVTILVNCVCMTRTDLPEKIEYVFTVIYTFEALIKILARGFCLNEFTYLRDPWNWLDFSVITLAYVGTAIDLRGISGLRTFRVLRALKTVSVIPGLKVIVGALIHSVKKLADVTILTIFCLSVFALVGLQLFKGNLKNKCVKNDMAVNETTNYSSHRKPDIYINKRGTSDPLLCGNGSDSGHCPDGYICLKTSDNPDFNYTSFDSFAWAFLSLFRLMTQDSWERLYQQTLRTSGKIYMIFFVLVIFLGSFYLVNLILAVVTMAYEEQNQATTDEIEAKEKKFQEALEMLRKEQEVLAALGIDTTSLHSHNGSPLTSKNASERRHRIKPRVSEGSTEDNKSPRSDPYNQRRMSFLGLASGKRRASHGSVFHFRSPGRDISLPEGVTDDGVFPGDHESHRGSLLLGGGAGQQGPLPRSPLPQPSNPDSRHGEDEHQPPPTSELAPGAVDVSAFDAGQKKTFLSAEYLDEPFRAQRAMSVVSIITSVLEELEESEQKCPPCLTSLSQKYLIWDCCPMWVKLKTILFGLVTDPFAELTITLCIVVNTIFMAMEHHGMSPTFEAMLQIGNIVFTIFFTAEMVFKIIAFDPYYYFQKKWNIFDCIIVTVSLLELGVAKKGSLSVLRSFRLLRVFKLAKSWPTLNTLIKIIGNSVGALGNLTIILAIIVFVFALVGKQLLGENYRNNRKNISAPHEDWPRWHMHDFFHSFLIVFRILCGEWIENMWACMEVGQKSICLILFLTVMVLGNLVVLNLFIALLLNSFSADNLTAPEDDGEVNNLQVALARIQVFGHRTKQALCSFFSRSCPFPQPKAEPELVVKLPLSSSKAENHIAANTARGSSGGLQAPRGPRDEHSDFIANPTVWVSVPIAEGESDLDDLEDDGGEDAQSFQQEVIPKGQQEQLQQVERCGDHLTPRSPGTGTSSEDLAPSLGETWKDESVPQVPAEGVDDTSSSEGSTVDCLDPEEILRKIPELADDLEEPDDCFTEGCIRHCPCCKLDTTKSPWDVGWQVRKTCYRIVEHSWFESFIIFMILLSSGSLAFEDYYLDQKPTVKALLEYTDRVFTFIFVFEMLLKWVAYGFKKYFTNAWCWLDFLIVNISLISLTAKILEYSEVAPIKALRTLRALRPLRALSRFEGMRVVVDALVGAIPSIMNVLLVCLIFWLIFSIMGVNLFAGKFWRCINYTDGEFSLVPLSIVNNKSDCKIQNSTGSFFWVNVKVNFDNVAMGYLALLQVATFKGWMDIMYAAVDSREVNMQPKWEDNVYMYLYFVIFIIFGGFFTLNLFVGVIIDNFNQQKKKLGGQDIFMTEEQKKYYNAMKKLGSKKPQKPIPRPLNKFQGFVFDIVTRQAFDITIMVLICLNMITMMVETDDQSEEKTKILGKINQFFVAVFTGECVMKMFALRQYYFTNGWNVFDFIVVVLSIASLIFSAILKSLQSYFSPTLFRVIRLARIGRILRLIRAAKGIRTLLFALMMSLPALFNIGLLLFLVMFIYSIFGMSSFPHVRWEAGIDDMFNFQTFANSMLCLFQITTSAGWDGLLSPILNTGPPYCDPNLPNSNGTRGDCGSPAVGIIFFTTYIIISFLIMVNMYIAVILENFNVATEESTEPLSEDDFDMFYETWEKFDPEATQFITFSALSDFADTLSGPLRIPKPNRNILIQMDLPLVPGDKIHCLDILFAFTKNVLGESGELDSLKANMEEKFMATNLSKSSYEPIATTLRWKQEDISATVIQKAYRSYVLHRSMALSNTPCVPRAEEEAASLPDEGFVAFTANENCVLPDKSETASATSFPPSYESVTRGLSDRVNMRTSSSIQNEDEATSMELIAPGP
In words: Automated whole-cell patch clamp (Qube384) voltage-clamp recordings of sodium currents in HEK-NaV1.8 cell line. The format is cell-based. The following applies: read-out: Potency category (human NaV 1.8 IC50). Put shortly:
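HEK cells expressing NaV1.8 with b3, whole-cell automated voltage clamp at room temperature or 19° C.; CsF-based internal, pH 7.4 external. State-dependent (−120 mV, V1/2 4 s, −10 mV test pulses) and 10/20 Hz 40-pulse protocols; ~12 min compound, vehicle-corrected, IC50 by 4-parameter logistic fit.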
As for `CC1(Cn2nc(C3(F)CC3)c(C(F)(F)F)c2C(=O)Nc2cccc(S(C)(=N)=O)c2)CC(F)(F)C1` (single isomer, unassigned) [Example 109b, 1-((3,3-Difluoro-1-methylcyclobutyl)methyl)-3-(1-fluorocyclopropyl)-N-(3-(S-methylsulfonimidoyl)phenyl)-4-(trifluoromethyl)-1H-pyrazole-5-carboxamide], the IC50 was not above 100 nM. As for `CC1(Cn2nc(C34CC(C3)C4)c(C(F)(F)F)c2C(=O)Nc2ccnc(S(C)(=N)=O)c2)CC(F)(F)C1` (single isomer, unassigned) [Example 58a, 3-(Bicyclo[1.1.1]pentan-1-yl)-1-((3,3-difluoro-1-methylcyclobutyl)methyl)-N-(2-(S-methylsulfonimidoyl)pyridin-4-yl)-4-(trifluoromethyl)-1H-pyrazole-5-carboxamide], the IC50 was not above 100 nM.

Take `CS(=N)(=O)c1cc(NC(=O)c2c(C(F)(F)F)c(C3CC3)nn2CC2CCC23CNC3)ccn1` (single isomer, unassigned) [Example 153c, 1-((2-Azaspiro[3.3]heptan-5-yl)methyl)-3-cyclopropyl-N-(2-(S-methylsulfonimidoyl)pyridin-4-yl)-4-(trifluoromethyl)-1H-pyrazole-5-carboxamide]: the IC50 lay within 1000 to 10000 nM. Take `C[C@@H]1C[C@H]1c1nn(CC2(C)CC(F)(F)C2)c(C(=O)Nc2ccnc([S@@](C)(=N)=O)c2)c1C(F)(F)F` (single isomer, unassigned) [Example 65d, 1-((3,3-Difluoro-1-methylcyclobutyl)methyl)-3-((trans)-2-methylcyclopropyl)-N-(2-(S-methylsulfonimidoyl)pyridin-4-yl)-4-(trifluoromethyl)-1H-pyrazole-5-carboxamide]: the IC50 is not above 100 nM. The value for `CC1(Cn2nc(C3CC3)c(C(F)(F)F)c2C(=O)Nc2ccc(F)c(S(C)(=N)=O)c2)CC(F)(F)C1` (single isomer, unassigned) [Example 132a, 3-Cyclopropyl-1-((3,3-difluoro-1-methylcyclobutyl)methyl)-N-(4-fluoro-3-(S-methylsulfonimidoyl)phenyl)-4-(trifluoromethyl)-1H-pyrazole-5-carboxamide] was not above 100 nM; that for `CS(=N)(=O)c1cc(NC(=O)c2c(C(F)(F)F)c(OC(F)F)nn2CC2CCC(F)(F)C2)ccn1` (stereo not drawn) [Example 33, 1-((3,3-Difluorocyclopentyl)methyl)-3-(difluoromethoxy)-N-(2-(S-methylsulfonimidoyl)pyridin-4-yl)-4-(trifluoromethyl)-1H-pyrazole-5-carboxamide] was not above 100 nM; that for `CC1(Cn2nc(C3(F)CC3)c(C(F)(F)F)c2C(=O)Nc2cccc(S(=N)(=O)C(F)F)c2)CC(F)(F)C1` (single isomer, unassigned) [Example 130a, 1-((3,3-Difluoro-1-methylcyclobutyl)methyl)-N-(3-(S-(difluoromethyl)sulfonimidoyl)phenyl)-3-(1-fluorocyclopropyl)-4-(trifluoromethyl)-1H-pyrazole-5-carboxamide] was not above 100 nM. For `CS(=N)(=O)c1cc(NC(=O)c2c(C(F)(F)F)c(C3CC3)nn2CC23CCC(F)(CC2)C3)ccn1` (single isomer, unassigned) [Example 106a, 3-cyclopropyl-1-((4-fluorobicyclo[2.2.1]heptan-1-yl)methyl)-N-(2-(S-methylsulfonimidoyl)pyridin-4-yl)-4-(trifluoromethyl)-1H-pyrazole-5-carboxamide], the 50% inhibitory concentration (IC50) was not above 100 nM. For `CC1(Cn2nc(C3(C#N)CC3)c(C(F)(F)F)c2C(=O)Nc2ccnc(S(C)(=N)=O)c2)CC(F)(F)C1` (single isomer, unassigned) [Example 68b, 3-(1-cyanocyclopropyl)-1-((3,3-difluoro-1-methylcyclobutyl)methyl)-N-(2-(S-methylsulfonimidoyl)pyridin-4-yl)-4-(trifluoromethyl)-1H-pyrazole-5-carboxamide], the IC50 was not above 100 nM.

As for `CC1(Cn2nc(C3(F)CC3)c(C(F)(F)F)c2C(=O)Nc2cccc(S(C)(=N)=O)c2)CC(F)(F)C1` (single isomer, unassigned) [Example 109a, 1-((3,3-Difluoro-1-methylcyclobutyl)methyl)-3-(1-fluorocyclopropyl)-N-(3-(S-methylsulfonimidoyl)phenyl)-4-(trifluoromethyl)-1H-pyrazole-5-carboxamide], the half-maximal inhibitory concentration (IC50) is not above 100 nM. The value for `C[S@](=N)(=O)c1cc(NC(=O)c2c(C(F)(F)F)c(C3CC3)nn2C[C@]2(C)C[C@@H](C(F)(F)F)C2)ccn1` (single isomer, unassigned) [Example 86d, 3-cyclopropyl-1-(((cis)-1-methyl-3-(trifluoromethyl)cyclobutyl)methyl)-N-(2-(S-methylsulfonimidoyl)pyridin-4-yl)-4-(trifluoromethyl)-1H-pyrazole-5-carboxamide] was not above 100 nM; that for `C[C@]1(Cn2nc(C3CC3)c(C(F)(F)F)c2C(=O)Nc2ccnc([S@@](C)(=N)=O)c2)CC(F)(F)C12CC2` (single isomer, unassigned) [Example 92b, 3-cyclopropyl-1-((6,6-difluoro-4-methylspiro[2.3]hexan-4-yl)methyl)-N-(2-(S-methylsulfonimidoyl)pyridin-4-yl)-4-(trifluoromethyl)-1H-pyrazole-5-carboxamide] was not above 100 nM.

As to `CC1(Cn2nc(C3(C(F)F)CC3)c(C(F)(F)F)c2C(=O)Nc2ccnc(S(C)(=N)=O)c2)CC(F)(F)C1` (single isomer, unassigned) [Example 145b, 1-((3,3-Difluoro-1-methylcyclobutyl)methyl)-3-(1-(difluoromethyl)cyclopropyl)-N-(2-(S-methylsulfonimidoyl)pyridin-4-yl)-4-(trifluoromethyl)-1H-pyrazole-5-carboxamide], the IC50 was not above 100 nM.

Consider `CC1(Cn2nc(C3CCCC3)c(C(F)(F)F)c2C(=O)Nc2ccnc(S(C)(=N)=O)c2)CC(F)(F)C1` (single isomer, unassigned) [Example 59a, 3-Cyclopentyl-1-((3,3-difluoro-1-methylcyclobutyl)methyl)-N-(2-(S-methylsulfonimidoyl)pyridin-4-yl)-4-(trifluoromethyl)-1H-pyrazole-5-carboxamide], for which the IC50 is not above 100 nM. The value for `COC1(c2nn(CC3(C)CC(F)(F)C3)c(C(=O)Nc3ccnc(S(C)(=N)=O)c3)c2C(F)(F)F)CC1` (single isomer, unassigned) [Example 71b, 1-((3,3-difluoro-1-methylcyclobutyl)methyl)-3-(1-methoxycyclopropyl)-N-(2-(S-methylsulfonimidoyl)pyridin-4-yl)-4-(trifluoromethyl)-1H-pyrazole-5-carboxamide] was not above 100 nM; that for `Cc1c(C(C)(F)F)nn(CC2CCC(F)(F)CC2)c1C(=O)Nc1ccnc(S(C)(=N)=O)c1` (single isomer, unassigned) [Example 9a, 1-((4,4-difluorocyclohexyl)methyl)-3-(1,1-difluoroethyl)-4-methyl-N-(2-(S-methylsulfonimidoyl)pyridin-4-yl)-1H-pyrazole-5-carboxamide] was not above 100 nM; that for `CC1(Cn2nc(C3CC3)c(C(F)(F)F)c2C(=O)Nc2ccc(F)c(S(C)(=N)=O)c2)CC(F)(F)C1` (single isomer, unassigned) [Example 132b, 3-Cyclopropyl-1-((3,3-difluoro-1-methylcyclobutyl)methyl)-N-(4-fluoro-3-(S-methylsulfonimidoyl)phenyl)-4-(trifluoromethyl)-1H-pyrazole-5-carboxamide] was not above 100 nM. The value for `CS(=N)(=O)c1cc(NC(=O)c2c(C(F)(F)F)c(C3CC3)nn2CC2C(F)(F)C23CCC3)ccn1` (single isomer, unassigned) [Example 136b, 3-Cyclopropyl-1-((2,2-difluorospiro[2.3]hexan-1-yl)methyl)-N-(2-(S-methylsulfonimidoyl)pyridin-4-yl)-4-(trifluoromethyl)-1H-pyrazole-5-carboxamide] was not above 100 nM; that for `CS(=N)(=O)c1cc(NC(=O)c2c(C(F)(F)F)c(C34CC(C3)C4)nn2CC2C[C@@H]2C(F)(F)F)ccn1` (stereo partly drawn) [Example 147] was not above 100 nM; that for `CC(F)(F)c1nn(CC2CC(F)(F)C2)c(C(=O)Nc2ccnc(S(C)(=N)=O)c2)c1C(F)(F)F` (stereo not drawn) [Example 3, 1-((3,3-Difluorocyclobutyl)methyl)-3-(1,1-difluoroethyl)-N-(2-(S-methylsulfonimidoyl)pyridin-4-yl)-4-(trifluoromethyl)-1H-pyrazole-5-carboxamide] was not above 100 nM.

For `CS(=N)(=O)c1cc(NC(=O)c2c(C(F)(F)F)c(C3CC3)nn2CC2C(F)(F)C23CCC3)ccn1` (single isomer, unassigned) [Example 136d, 3-Cyclopropyl-1-((2,2-difluorospiro[2.3]hexan-1-yl)methyl)-N-(2-(S-methylsulfonimidoyl)pyridin-4-yl)-4-(trifluoromethyl)-1H-pyrazole-5-carboxamide], the IC50 was not above 100 nM. On to `CC1(Cn2nc(C(C)(F)F)c(C(F)(F)F)c2C(=O)Nc2ccnc(S(C)(=N)=O)c2)CC(F)(F)C1` (single isomer, unassigned) [Example 75a, 1-((3,3-difluoro-1-methylcyclobutyl)methyl)-3-(1,1-difluoroethyl)-N-(2-(S-methylsulfonimidoyl)pyridin-4-yl)-4-(trifluoromethyl)-1H-pyrazole-5-carboxamide], for which the IC50 is not above 100 nM. The value for `CC(=O)N1CC2(CCC2Cn2nc(C3CC3)c(C(F)(F)F)c2C(=O)Nc2ccnc(S(C)(=N)=O)c2)C1` (single isomer, unassigned) [Example 140a, 1-((2-Acetyl-2-azaspiro[3.3]heptan-5-yl)methyl)-3-cyclopropyl-N-(2-(S-methylsulfonimidoyl)pyridin-4-yl)-4-(trifluoromethyl)-1H-pyrazole-5-carboxamide] was 100 to 1000 nM. The value for `CS(=N)(=O)c1cc(NC(=O)c2c(C(F)(F)F)c(C3CC3)nn2C[C@@H]2CCC(F)(F)C2)ccn1` (single isomer, unassigned) [Example 17d] was not above 100 nM.
